Measurements reported in patent publication US4771044A, “Tetraoxo compounds and pharmaceutical compositions” (Kali-Chemie Pharma GmbH, priority 1985, dated 1988).
Read-outs that look alike come from different tables or passages of the source.

Legend:
female Wistar rats [1] = assay: Behavioral changes of rats in punishment conflict situation (Skinner box), anxiolytic properties; format: in vivo, rat; conditions: po, 1 h
Protocol: 4. Evaluation of anxiolytic properties.
For evaluating the anxiolytic properties of the compounds a modified method according to Davidson et al (see The Benzodiazepines, Raven Press New York 1973 pp 327-345) is used, whereby the ability of the compounds to change the behavior of rats in a punishment conflict situation is examined.
In order to create the conflict situation the following experimental set up and procedure are used:
The tests are performed in Skinner boxes which are provided with an electrifyable grid-floor, a lever which has to be pressed by the rat, an automatic feeder and 2 different light sources. Female Wistar rats having a body weight of 180-300 g are used. Prior to testing the animals are trained to obtain food by pressing the lever, whereby 2 phases of different conditions alternate. The two phases are distinguished by different lightening. During one phase a food reward is given at a fixed ratio after each 10th lever press (=FR 10), yet simultaneous by with the food pellet an electric food shock punishment is delivered. During the other phase food reward is obtained without any electric punishment, yet lever pressing is rewarded with a food pellet far less frequently and at varying time intervals only (average interval 30 sec=VI30). During each […]. trial session […] alternate with 6 FP10 phases (120 sec. each).
For testing the compounds each animal is subjected to the 47 min. test procedure once a day on 4 consecutive days always at the same time. On days 1, 2 and 3 the animals are given per os 10 ml/kg of 2% tylose soluton 60 min. prior to test begin. On day 4 they are given a dose of the test compound in the tylose solution. For each animal the number of lever press responses in the punished FR10 phases and in the unpunished VI30 phases are recorded seperately for each day. For each animal the mean values from the results of the first three days are taken as control values. The results from the 4th day are compared with these control values. The lowest doses which produce significant changes in the number of lever presses are determined for the unpunished phase and for the punished phase as the minimum effective doses (=MEDup and MEpp). Increased activity during the punished phase is due to anxiolytic effects of the test compound. Reduced activity during the unpunished phase is an indication of sedative effects of the compound.

male mice = conditions: mouse, in vivo, 1440 min
Protocol: 1. Determination of Minimum Toxic Dose
Male mice weighing 20 to 25 g are administered per os and i.p. maximum doses of 300 mg/kg of the test substances. The animals are carefully observed for three hours for toxic symptoms. During a period of 24 hours following the administration all symptoms and deaths are recorded. Side reactions are likewise observed and recorded. When death or strong toxic symptoms are observed, further mice are administered increasingly smaller doses. The lowest dose which produces death or strong toxic symptoms is given as the minimum toxic dose.

female Wistar rats [2] = assay: CAR-test (conditioned avoidance response) in rats, antipsychotic properties; format: in vivo; conditions: po, 1 h, rat, per os, one hour prior to testing
Protocol: 2. Evaluation of antipsychotic properties in the CAR-test procedure in rats.
The CAR test is performed in a modification of the experimental set up described by Capaldi et al (see R. D. Myers (ed): Methods in Psychobiology, Academic Press, New York, pp. 71-74). Fully automated one-way shuttle boxes are used, which are divided into 2 compartments by a wall with a hole. The floor of the box is a grid of stainless steel through which electric stimuli can be delivered. The ceiling of the box is provided with a lamp and a loudspeaker giving a buzzertone. In order to avoid the electric stimulus in the first starting compartment the animals can cross over into the safe second compartment.
During the test procedure the animals are placed into the starting compartment and at the same time the light and the loudspeaker are switched on as a warning signal (=conditioned stimulus). If at this warning signal already the animals cross over into the safe compartment, this is considered a CAR and is automatically recorded. If the animals don't cross over into the safe compartment within 5 sec. an electric shock is delivered additionally through the floor grid (=unconditioned stimulus) for a period of up to 15 sec. If at the presentation of the electric shock the animals cross over into the safe compartment, this is considered an unconditioned escape response (=UER). As soon as the animals have crossed over into the safe compartment the stimuli are switched off automatically.
For the test female Wistar rats having a body weight of 140-210 g are used. They are trained in a 20 trial session on the day before and only such animals which show CAR exclusively are used for the drug experiments.
Groups of 4 animals are used for each dose of the test compounds, the animals are placed into the test situation 15 times each, and the average value of the last 10 trials is taken into account.
The test compounds are administered per os in a volume of 10 ml/kg of 2% tylose solution one hour prior to testing. To a control group tylose solution only is administered. The dose which reduces CAR by 50% and thus leads to a 50% avoidance block is determined (=ED50 AB). Furthermore the dosis which reduces UER by 50% and thus leads to a 50% escape block is determined (=ED50 EB).

male NMRI-mice = assay: Inducement of head-shaking syndrome in mice by interaction with subthreshold dose of 5-HTP, antidepressive properties; format: in vivo; conditions: mouse, p.o.; pargyline 25 mg/kg i.p. pretreatment, 50 mg/kg 5-HTP i.p.; 60 min
Protocol: 3. Evaluation of antidepressive properties.
This effect is typical of antidepressives. For this a modified method according to Corne et al (see Br.J.Pharmacol. 20, pp 106-120) is used to determine the ability of the compounds to induce a head-shaking syndrome in mice in interaction with a subthreshold dose of 5-HTP.
Male NMRI-mice having a body weight of 20-30 g are used. 60 min. prior to administration of the test compounds the animals are given an i.p. injection of 25 mg/kg of the MAO-inhibitor pargyline dissolved in a volume of 10 ml/kg of 2% tylose solution. Groups of 20 animals are used for each dose of the test compounds. The test compounds are administered per os in a volume of 10 ml/kg of 2% tylose solution. After 30 min. 50 mg/kg 5-HTP in a volume of 10 ml/kg of 2% tylose solution are injected i.p. and each animal is placed in a case individually. A group of control animals receives only the pargyline injection, the 5-HTP injection and 2% tylose solution p.o.
60 min. after administration of the test compounds (=30 min. after 5-HTP injection) the animals are observed for 120 sec. in order to check, whether or not the head-shaking-syndrome occurs.
The ED50 is defined as the dose at which the number of animals showing a head-shake-syndrome is increased by 50% as compared with the control group.

[3] = rat, p.o., punished FR10 phase, 60 min. prior to test, read-out: MEDPP (minimum effective dose, punished phase)
[4] = rat, p.o., unpunished VI30 phase, 60 min. prior to test, read-out: MEDUP (minimum effective dose, unpunished phase)
[5] = read-out: ED50 AB (dose leading to 50% avoidance block)
[6] = read-out: ED50 EB (dose leading to 50% escape block)

In the case of `CCCCN1C(=O)C2C(=O)N(CCCCN3CCN(c4ccccc4OC)CC3)C(=O)C(C1=O)C2(C)C` [Compound 3107], the minimal effective dose (female Wistar rats [1]; [3]) is reported as 14.7 µmol/kg, the minimal effective dose (female Wistar rats [1]; [4]) is reported as 147 µmol/kg and the “Minimum Toxic Dose” value (male mice; ip) is reported as 200 mg/kg. For the same compound, the “Minimum Toxic Dose” value (male mice; po) was greater than 300 mg/kg, the ED50 (female Wistar rats [2]; [5]) was 27 µmol/kg and the ED50 (female Wistar rats [2]; [6]) was 70 µmol/kg.
`CCCCN1C(=O)C2C(=O)N(CCCCN3CCN(c4ccccc4OCC)CC3)C(=O)C(C1=O)C2(C)C` [Compound 3110] was tested, and the minimal effective dose (female Wistar rats [1]; [3]) was 6.8 µmol/kg, the minimal effective dose (female Wistar rats [1]; [4]) was greater than 215 µmol/kg and the “Minimum Toxic Dose” value (male mice; ip) was greater than 300 mg/kg. The “Minimum Toxic Dose” value (male mice; po) was greater than 300 mg/kg, the ED50 (female Wistar rats [2]; [5]) was 50 µmol/kg and the ED50 (female Wistar rats [2]; [6]) was 200 µmol/kg.
In the case of `CCCCN1C(=O)C2C(=O)N(CCCCN3CCN(c4ccc(F)cc4)CC3)C(=O)C(C1=O)C2(C)C` [Compound 3135], the “Minimum Toxic Dose” value (male mice; ip) is reported as greater than 300 mg/kg, the “Minimum Toxic Dose” value (male mice; po) is reported as greater than 300 mg/kg and the “ED50, inducement of head-shaking-syndrome by interaction with 5-HTP” value (from here on “ED50, inducement”) (male NMRI-mice) is reported as 72 µmol/kg.
`CCCCCCN1C(=O)C2C(=O)N(CCCCCN3CCN(c4ccccc4OC)CC3)C(=O)C(C1=O)C2(C)C` [Compound 3142] was tested, and the “ED50, inducement” value (male NMRI-mice) was 74 µmol/kg.
`CCCCCCN1C(=O)C2C(=O)N(CCCCCN3CCN(c4cccc(C)c4)CC3)C(=O)C(C1=O)C2(C)C` [Compound 3143] was tested, and the “Minimum Toxic Dose” value (male mice; ip) was greater than 300 mg/kg, the “Minimum Toxic Dose” value (male mice; po) was greater than 300 mg/kg and the “ED50, inducement” value (male NMRI-mice) was 130 µmol/kg.
For `CCCCN1C(=O)C2C(=O)N(CCCCN3CCN(c4ncccn4)CC3)C(=O)C(C1=O)C2(C)C` [Compound 3304], the minimal effective dose (female Wistar rats [1]; [3]) was 21.5 µmol/kg and the minimal effective dose (female Wistar rats [1]; [4]) was greater than 215 µmol/kg.
For `CN1C(=O)CN=C(c2ccccc2)c2cc(Cl)ccc21` [Diazepam, reference compound], the minimal effective dose (female Wistar rats [1]; Rattus norvegicus, read-out: MEDPP (minimum effective dose, punished phase)) was 31.6 µmol/kg and the minimal effective dose (female Wistar rats [1]; Rattus norvegicus, read-out: MEDUP (minimum effective dose, unpunished phase)) was 46.4 µmol/kg.
